Results from US9474790B2, “Stable, protracted GLP-1/glucagon receptor co-agonists for medical use” (Novo Nordisk A/S, priority 2013, dated 2016).
Numbered stars: 1 amine (or outer) side, 2 acyl side, 3 side chain; on linkers, the order of the positions; unused ones are H or OH. Square brackets hold non-standard residues; d marks the D form. Side chains are listed from the residue outwards. Peptide text beside a SMILES is read from it. * marks the point of attachment. C18 diacid = O=C(O)CCCCCCCCCCCCCCCCC(=O)*; γGlu = O=C(O)[C@H](CCC(=O)[*:2])N[*:1]; Ac4c = NC1(C(=O)O)CCC1; AEEA = NCCOCCOCC(=O)O; Aib = CC(C)(N)C(=O)O

Assay: Thioflavin T (ThT) fibrillation assay for physical stability
Assay type: physicochemical
Details: 250 μM in 10 mM HEPES buffer, pH 7.5, 37° C., shaking 960 rpm
Procedure, shortened: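 Fibrillation was followed by ThT (1 μM) fluorescence every 20 min, 444/485 nm, for 250 μM peptide in 10 mM HEPES pH 7.5 shaken at 960 rpm, 37° C. Lag time (t0−2τ) and apparent rate constant (1/τ) come from a sigmoidal fit. Recovery is % of initial concentration remaining soluble after centrifugation and filtration (RP-HPLC).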

| SMILES | THT assay Lag time (Ex. 76) [h] |
| --- | --- |
| CC(C)C[C@H](NC(=O)[C@H](Cc1ccc(O)cc1)NC(=O)[C@H](CCCCN)NC(=O)[C@H](CO)NC(=O)[C@H](CC(C)C)NC(=O)[C@H](CC(=O)O)NC(=O)[C@H](CO)NC(=O)[C@@H](NC(=O)[C@H](Cc1ccccc1)NC(=O)[C@@H](NC(=O)CNC(=O)[C@H](CCC(N)=O)NC(=O)C(C)(C)NC(=O)[C@@H](N)Cc1c[nH]cn1)[C@@H](C)O)[C@@H](C)O)C(=O)N[C@@H](CCC(=O)O)C(=O)N[C@@H](CO)C(=O)N[C@@H](CCCCN)C(=O)N[C@@H](CCCNC(=N)N)C(=O)N[C@@H](C)C(=O)N[C@@H](CCCNC(=N)N)C(=O)N[C@@H](CCC(=O)O)C(=O)N[C@@H](Cc1ccccc1)C(=O)N[C@H](C(=O)N[C@@H](CCC(N)=O)C(=O)N[C@@H](Cc1c[nH]c2ccccc12)C(=O)N[C@@H](CC(C)C)C(=O)N[C@@H](CC(C)C)C(=O)N[C@@H](CCCCNC(=O)CC[C@H](NC(=O)CC[C@H](NC(=O)[C@H](CO)NC(=O)[C@H](CCC(=O)O)NC(=O)[C@H](CO)NC(=O)CC[C@H](NC(=O)CC[C@H](NC(=O)CCCCCCCCCCCCCCCCC(=O)O)C(=O)O)C(=O)O)C(=O)O)C(=O)O)C(=O)N[C@H](C(N)=O)[C@@H](C)O)C(C)C [Example 52] (H-H[Aib]QGTFTSDLSKYLESKRAREFVQWLLK([γGlu-γGlu-Ser-Glu-Ser-γGlu-γGlu-C18 diacid])T-NH2; N-terminus assumed) | 45 |
| CC(C)C[C@H](NC(=O)[C@H](Cc1ccc(O)cc1)NC(=O)[C@H](CCCCN)NC(=O)[C@H](CO)NC(=O)[C@H](CC(C)C)NC(=O)[C@H](CC(=O)O)NC(=O)[C@H](CO)NC(=O)[C@@H](NC(=O)[C@H](Cc1ccccc1)NC(=O)[C@@H](NC(=O)CNC(=O)[C@H](CCC(N)=O)NC(=O)C(C)(C)NC(=O)[C@@H](N)Cc1c[nH]cn1)[C@@H](C)O)[C@@H](C)O)C(=O)N[C@@H](CCC(=O)O)C(=O)N[C@@H](CO)C(=O)N[C@@H](CCCCN)C(=O)N[C@@H](CCCNC(=N)N)C(=O)N[C@@H](C)C(=O)N[C@@H](CCCNC(=N)N)C(=O)N[C@@H](CCC(=O)O)C(=O)N[C@@H](Cc1ccccc1)C(=O)N[C@H](C(=O)N[C@@H](CCC(N)=O)C(=O)N[C@@H](Cc1c[nH]c2ccccc12)C(=O)N[C@@H](CC(C)C)C(=O)N[C@@H](CC(C)C)C(=O)N[C@@H](CCCCNC(=O)CC[C@H](NC(=O)CC[C@H](NC(=O)[C@H](CO)NC(=O)[C@H](CCC(=O)O)NC(=O)[C@H](CO)NC(=O)CC[C@H](NC(=O)CC[C@H](NC(=O)CCCCCCCCCCCCCCCCC(=O)O)C(=O)O)C(=O)O)C(=O)O)C(=O)O)C(=O)N[C@H](C(N)=O)[C@@H](C)O)C(C)C [Example 54, N^ε28-[(4S)-4-carboxy-4-[[(4S)-4-carboxy-4-[[(2S)-2-[[(2S)-4-carboxy-2-[[(2S)-2-[[(4S)-4-carboxy-4-[[(4S)-4-carboxy-4-(17-carboxyheptadecanoylamino)butanoyl]amino]butanoyl]amino]-3-hydroxypropanoyl]amino]butanoyl]amino]-3-hydroxypropanoyl]amino]butanoyl]amino]butanoyl]-[Aib2,Leu10,Glu15,Lys17,Arg20,Glu21,Leu27,Lys28]-Glucagon amide] (H-H[Aib]QGTFTSDLSKYLESKRAREFVQWLLK([γGlu-γGlu-Ser-Glu-Ser-γGlu-γGlu-C18 diacid])T-NH2; N-terminus assumed) | 45 |
| CC(C)C[C@H](NC(=O)[C@H](CC(=O)O)NC(=O)[C@H](CC(C)C)NC(=O)[C@H](Cc1ccc(O)cc1)NC(=O)[C@H](CCCCN)NC(=O)[C@H](CO)NC(=O)[C@H](CC(C)C)NC(=O)[C@H](CC(=O)O)NC(=O)[C@H](CO)NC(=O)[C@@H](NC(=O)[C@H](Cc1ccccc1)NC(=O)[C@@H](NC(=O)CNC(=O)[C@H](CCC(N)=O)NC(=O)C(C)(C)NC(=O)[C@@H](N)Cc1c[nH]cn1)[C@@H](C)O)[C@@H](C)O)C(=O)N[C@@H](CCCNC(=N)N)C(=O)N[C@@H](CCCNC(=N)N)C(=O)N[C@@H](C)C(=O)N[C@@H](CCCNC(=N)N)C(=O)N[C@@H](CC(=O)O)C(=O)N[C@@H](Cc1ccccc1)C(=O)N[C@H](C(=O)N[C@@H](CCC(N)=O)C(=O)N[C@@H](Cc1c[nH]c2ccccc12)C(=O)N[C@@H](CC(C)C)C(=O)N[C@@H](CC(C)C)C(=O)N[C@@H](CCCCNC(=O)CNC(=O)[C@H](CO)NC(=O)[C@H](CCC(=O)O)NC(=O)[C@H](CO)NC(=O)CC[C@H](NC(=O)CC[C@H](NC(=O)CCCCCCCCCCCCCCCCC(=O)O)C(=O)O)C(=O)O)C(=O)N[C@H](C(N)=O)[C@@H](C)O)C(C)C [Example 55, N^ε28-[2-[[(2S)-2-[[(2S)-4-carboxy-2-[[(2S)-2-[[(4S)-4-carboxy-4-[[(4S)-4-carboxy-4-(17-carboxyheptadecanoylamino)butanoyl]amino]butanoyl]amino]-3-hydroxypropanoyl]amino]butanoyl]amino]-3-hydroxypropanoyl]amino]acetyl]-[Aib2,Leu10,Leu16,Arg20,Leu27,Lys28]-Glucagon amide] (H-H[Aib]QGTFTSDLSKYLDLRRARDFVQWLLK([Gly-Ser-Glu-Ser-γGlu-γGlu-C18 diacid])T-NH2; N-terminus assumed) | 45 |
| CC(C)C[C@H](NC(=O)[C@H](Cc1ccc(O)cc1)NC(=O)[C@H](CCCCN)NC(=O)[C@H](CO)NC(=O)[C@H](CC(C)C)NC(=O)[C@H](CC(=O)O)NC(=O)[C@H](CO)NC(=O)[C@@H](NC(=O)[C@H](Cc1ccccc1)NC(=O)[C@@H](NC(=O)CNC(=O)[C@H](CCC(N)=O)NC(=O)C(C)(C)NC(=O)[C@@H](N)Cc1c[nH]cn1)[C@@H](C)O)[C@@H](C)O)C(=O)N[C@@H](CC(=O)O)C(=O)N[C@@H](CO)C(=O)N[C@@H](CCCNC(=N)N)C(=O)N[C@@H](CCCNC(=N)N)C(=O)N[C@@H](C)C(=O)N[C@@H](CCCNC(=N)N)C(=O)N[C@@H](CCC(=O)O)C(=O)N[C@@H](Cc1ccccc1)C(=O)N[C@H](C(=O)N[C@@H](CCC(N)=O)C(=O)N[C@@H](Cc1c[nH]c2ccccc12)C(=O)N[C@@H](CC(C)C)C(=O)N[C@@H](CC(C)C)C(=O)N[C@@H](CCCCNC(=O)CC[C@H](NC(=O)CC[C@H](NC(=O)COCCOCCNC(=O)COCCOCCNC(=O)CC[C@H](NC(=O)CCCCCCCCCCCCCCCCC(=O)O)C(=O)O)C(=O)O)C(=O)O)C(=O)N[C@H](C(N)=O)[C@@H](C)O)C(C)C [Example 56, N^ε28-[(4S)-4-carboxy-4-[[(4S)-4-carboxy-4-[[2-[2-[2-[[2-[2-[2-[[(4S)-4-carboxy-4-(17-carboxyheptadecanoylamino)butanoyl]amino]ethoxy]ethoxy]acetyl]amino]ethoxy]ethoxy]acetyl]amino]butanoyl]amino]butanoyl]-[Aib2,Leu10,Arg20,Glu21,Leu27,Lys28]-Glucagon amide] (H-H[Aib]QGTFTSDLSKYLDSRRAREFVQWLLK([γGlu-γGlu-AEEA-AEEA-γGlu-C18 diacid])T-NH2) | 45 |
| CC(C)C[C@H](NC(=O)[C@H](Cc1ccc(O)cc1)NC(=O)[C@H](CCCNC(=N)N)NC(=O)[C@H](CO)NC(=O)[C@H](CC(C)C)NC(=O)[C@H](CC(=O)O)NC(=O)[C@H](CO)NC(=O)[C@@H](NC(=O)[C@H](Cc1ccccc1)NC(=O)[C@@H](NC(=O)CNC(=O)[C@H](CCC(N)=O)NC(=O)C1(NC(=O)[C@@H](N)Cc2c[nH]cn2)CCC1)[C@@H](C)O)[C@@H](C)O)C(=O)N[C@@H](CCC(=O)O)C(=O)N[C@@H](CO)C(=O)N[C@@H](CCCNC(=N)N)C(=O)N[C@@H](CCCNC(=N)N)C(=O)N[C@@H](C)C(=O)N[C@@H](CCCNC(=N)N)C(=O)N[C@@H](CCC(=O)O)C(=O)N[C@@H](Cc1ccccc1)C(=O)N[C@H](C(=O)N[C@@H](CCC(N)=O)C(=O)N[C@@H](Cc1c[nH]c2ccccc12)C(=O)N[C@@H](CC(C)C)C(=O)N[C@@H](CC(C)C)C(=O)N[C@@H](CCCCNC(=O)CC[C@H](NC(=O)CC[C@H](NC(=O)COCCOCCNC(=O)COCCOCCNC(=O)CC[C@H](NC(=O)CC[C@H](NC(=O)CCCCCCCCCCCCCCCCC(=O)O)C(=O)O)C(=O)O)C(=O)O)C(=O)O)C(=O)N[C@H](C(N)=O)[C@@H](C)O)C(C)C [Example 59, N^ε28-[(4S)-4-carboxy-4-[[(4S)-4-carboxy-4-[[2-[2-[2-[[2-[2-[2-[[(4S)-4-carboxy-4-[[(4S)-4-carboxy-4-(17-carboxyheptadecanoylamino)butanoyl]amino]butanoyl]amino]ethoxy]ethoxy]acetyl]amino]ethoxy]ethoxy]acetyl]amino]butanoyl]amino]butanoyl]-[Acb2,Leu10,Arg12,Glu15,Arg20,Glu21,Leu27,Lys28]-Glucagon amide] (H-H[Ac4c]QGTFTSDLSRYLESRRAREFVQWLLK([γGlu-γGlu-AEEA-AEEA-γGlu-γGlu-C18 diacid])T-NH2; N-terminus assumed) | 12 |
